Read-outs that look alike come from different tables or passages of the source.
Key:
Format in all cases: cell-based
Mino cells = test: Inhibition of cell proliferation of Mino cells (MTS, 3 days); conditions: Homo sapiens, MINO
Procedure: Mino cells were cultured with RPMI-1640 medium supplemented with 15% fetal bovine serum, and collected. The cell concentration was diluted according to a 3-day treatment period, and 90 μL of the cell suspension was added to each well of a 96-well plate, resulting in 8000 cells per well. For control wells, 10 μL of DMSO at a final concentration of 0.2% was added. The compounds were diluted in a 5-fold gradient from a 10 mM stock solution, and 10 μL of each compound solution was added to the experimental wells (with a final DMSO concentration of 0.2%). The cells were incubated in a 37° C., 5% CO2 incubator for 3 days. After preparing the reaction mixture using the MTS reagent kit (Promega, G5430), 20 μL was added to each well, and the cells were incubated for 3-4 hours at 37° C., 5% CO2.
The absorbance at 490 nm was read using a microplate reader, with the absorbance at 690 nm used as the background. The final raw data was calculated as OD490-OD690. The inhibition rate of the compounds was calculated using the formula: Inhibition rate=(OD DMSO−OD compound)/(OD DMSO−OD blank)×100%. The IC50 values for cell proliferation inhibition of the compounds were fitted using GraphPad Prism 5.0. The experiment was repeated three times, with the average and standard deviation calculated from three parallel experiments each time.

MM.1S cells = test: Effect of the compound on MM.1S cell proliferation (MTS, 7 days); conditions: Homo sapiens, MM1.S
Procedure: MM.1S cells were cultured in 1640 medium supplemented with 10% fetal bovine serum, then collected and diluted to the desired cell concentration after 7 days of treatment. A total of 180 μL of cell suspension was added to each well in a 96-well cell plate, ensuring 20,000 cells per well. For the control group, 20 μL of 0.2% DMSO was added to each well. Compounds were diluted in a 5-step gradient from a 10 mM stock solution, and 20 μL of each dilution was added to the compound-containing wells (with a final DMSO concentration of 0.2%). The cells were incubated in a 37° C., 5% CO2 incubator for 7 days. Afterward, 20 μL of the MTS reagent (Promega, G5430) was added to each well, followed by incubation for 3-4 hours in a 37° C., 5% CO2 incubator. Absorbance at 490 nm was measured using a microplate reader, with 690 nm absorbance as the background. The final raw data was calculated as OD490-OD690. The compound inhibition rate was calculated using the formula: […]
The IC50 for the compound's proliferative inhibition was fitted using GraphPad Prism 5.0. The experiment was repeated three times, and the average and standard deviation were calculated using three parallel experiments per trial.

MV-4-11 cells = test: Inhibition of MV-4-11 cell proliferation (MTS, 7 days); conditions: Homo sapiens
Procedure: MV-4-11 cells were cultured in IMDM with 10% fetal bovine serum, collected, and diluted to the appropriate cell concentration for a 7-day treatment period. A 96-well plate was used, and 180 μL of cell suspension was added to each well, resulting in a cell count of 2,000 per well. For the control wells, 20 μL of DMSO at a final concentration of 0.2% was added. The compounds were diluted from a 10 mM stock solution in a five-fold gradient, and 20 μL was added to the compound wells (with a final DMSO concentration of 0.2%). The cells were incubated in a 37° C., 5% CO2 incubator for 7 days. After preparing the reaction solution using the MTS reagent kit (Promega, G5430), 20 μL was added to each well, and the cells were incubated in the incubator for 3-4 hours. The absorbance at 490 nm was measured using a microplate reader, with the absorbance at 690 nm as the background value. The final data was calculated as OD490-OD690. The inhibition rate of the compounds was calculated using the formula: […]
The IC50 values for proliferation inhibition were calculated using GraphPad Prism 5.0. The experiments were repeated three times, with three parallel experiments for each, and the mean and standard deviation were calculated.
The cell activity test results are shown in Table 3: A indicates IC50<1 μM, B indicates 1 µM≤IC50≤20 μM, and C indicates IC50>20 μM.

[1] = 72 h, 3 days, MTS, Table 2, read-out: Mino Cells Inhibition Activity IC50
[2] = 168 h, 7 days, MTS, Table 1, read-out: MM.1S Cells Inhibition Activity IC50
[3] = MV4-11, 168 h, 7 days, MTS, Table 3, read-out: MV-4-11 Cells Inhibition Activity IC50

Structure (SMILES) | IC50 (Mino cells; [1]) [nM] | IC50 (MM.1S cells; [2]) [nM] | IC50 (MV-4-11 cells; [3]) [µM] | IC50 (Mino cells; Table 4, read-out: Inhibitory Activity of Compounds on Cell Proliferation Mino IC50) [nM] | IC50 (MM.1S cells; Table 4, read-out: Inhibitory Activity of Compounds on Cell Proliferation MM.1S IC50) [nM] | IC50 (MV-4-11 cells; MV4-11, Table 4, values in μM, read-out: Inhibitory Activity of Compounds on Cell Proliferation MV-4-11 IC50) [µM]
O=C1CCC(N2C(=O)c3cccc(NCc4cnc(-c5cccc(-c6ccccc6)c5)o4)c3C2=O)C(=O)N1 (stereo not drawn) [Example 18] | < 60 | < 15 | < 1 |  |  | 
Cc1ccc(-c2ncc(CNc3cccc4c3C(=O)N(C3CCC(=O)NC3=O)C4=O)o2)cc1 (stereo not drawn) [Example 19] | < 60 | < 15 | < 1 |  |  | 
Cc1cccc(-c2ncc(CNc3cccc4c3C(=O)N(C3CCC(=O)NC3=O)C4=O)o2)c1 (stereo not drawn) [Example 20] | < 60 | < 15 | < 1 |  |  | 
Cc1ccccc1-c1ncc(CNc2cccc3c2C(=O)N(C2CCC(=O)NC2=O)C3=O)o1 (stereo not drawn) [Example 21] | > 120 | < 15 | 1 to 20 |  |  | 
O=C1CCC(N2C(=O)c3cccc(NCc4cnc(-c5ccc(Br)cc5)o4)c3C2=O)C(=O)N1 (stereo not drawn) [Example 23] | > 120 | < 15 | < 1 |  |  | 
Cc1ccc(-c2cnc(CNc3cccc4c3C(=O)N(C3CCC(=O)NC3=O)C4=O)o2)cc1 (stereo not drawn) [Example 24] | > 120 | 15 to 30 | < 1 |  |  | 
O=C1CCC(N2C(=O)c3cccc(NCc4cnc(-c5ccc(Cl)cc5)o4)c3C2=O)C(=O)N1 (stereo not drawn) [Example 25] | < 60 | < 15 | < 1 | < 60 | < 15 | < 1
O=C1CCC(N2C(=O)c3cccc(NCc4cnc(-c5ccc(F)cc5)o4)c3C2=O)C(=O)N1 (stereo not drawn) [Example 26] | < 60 | < 15 | < 1 |  |  | 
O=C1CCC(N2C(=O)c3cccc(NCc4cnc(-c5ccccc5Cl)o4)c3C2=O)C(=O)N1 (stereo not drawn) [Example 27] | 60 to 120 | < 15 | < 1 |  |  | 
O=C1CCC(N2C(=O)c3cccc(NCc4cnc(-c5cccc(F)c5)s4)c3C2=O)C(=O)N1 (stereo not drawn) [Example 28] | > 120 | 30 to 150 | 1 to 20 |  |  | 
Cc1ccc(-c2ncc(CNc3cccc4c3C(=O)N(C3CCC(=O)NC3=O)C4=O)s2)cc1 (stereo not drawn) [Example 29] | > 120 | < 15 | < 1 |  |  | 
N#Cc1cccc(-c2ncc(CNc3cccc4c3C(=O)N(C3CCC(=O)NC3=O)C4=O)s2)c1 (stereo not drawn) [Example 30] | > 120 | 15 to 30 | 1 to 20 |  |  | 
C=Cc1ccc(-c2ncc(CNc3cccc4c3C(=O)N(C3CCC(=O)NC3=O)C4=O)s2)cc1 (stereo not drawn) [Example 31] | < 60 | < 15 | < 1 |  |  | 
O=C1CCC(N2C(=O)c3cccc(NCc4cnc(-c5ccc(Cl)cc5)s4)c3C2=O)C(=O)N1 (stereo not drawn) [Example 32] | 60 to 120 | < 15 | < 1 |  |  | 
N#Cc1ccc(-c2ncc(CNc3cccc4c3C(=O)N(C3CCC(=O)NC3=O)C4=O)s2)cc1 (stereo not drawn) [Example 33, 4-(5-(((2-(2,6-dioxopiperidin-3-yl)-1,3-dioxoisoindolin-4-yl)amino)methyl)thiazol-2-yl)benzonitrile] | 60 to 120 | < 15 | < 1 |  |  | 
O=C1CCC(N2C(=O)c3cccc(NCc4ncc(-c5ccc(F)cc5)s4)c3C2=O)C(=O)N1 (stereo not drawn) [Example 34] | > 120 | 30 to 150 | < 1 |  |  | 
O=C1CCC(N2C(=O)c3cccc(NCc4cnc(-c5ccc(OC(F)(F)F)cc5)s4)c3C2=O)C(=O)N1 (stereo not drawn) [Example 35] | < 60 | < 15 | < 1 |  |  | 
COc1ccc(-c2ncc(CNc3cccc4c3C(=O)N(C3CCC(=O)NC3=O)C4=O)s2)c(OC)c1 (stereo not drawn) [Example 36] | > 120 | 15 to 30 | < 1 |  |  | 
CC(C)(C)C(=O)OCN1C(=O)CCC(N2C(=O)c3cccc(NCc4cnc(-c5ccc(C(F)(F)F)cc5)s4)c3C2=O)C1=O (stereo not drawn) [Example 39] | 60 to 120 | 15 to 30 | < 1 |  |  | 
CC(C)(C)C(=O)OCN1C(=O)CCC(N2C(=O)c3cccc(NCc4cnc(-c5ccc(Cl)cc5)o4)c3C2=O)C1=O (stereo not drawn) [Example 40, (3-(4-(((2-(4-Chlorophenyl)-5-oxazolyl)methyl)amino)-1,3-dioxoisoindol-2-yl)-2,6-dioxopiperidin-1-yl)methyl Neopentyl Ester] | > 120 | 30 to 150 | < 1 |  |  | 
CC(C)(C)C(=O)OCN1C(=O)CCC(N2C(=O)c3cccc(NCc4cnc(C5CCN(C(=O)C(C)(C)C)CC5)o4)c3C2=O)C1=O (stereo not drawn) [Example 41] | > 120 | 15 to 30 | 1 to 20 |  |  | 
O=C1CCC(N2C(=O)c3cccc(NCc4cnc(-c5ccc(Cl)cn5)s4)c3C2=O)C(=O)N1 (stereo not drawn) [Example 43] | > 120 | < 15 | < 1 |  |  | 
O=C1CCC(N2C(=O)c3cccc(NCc4cnc(-c5ccc(Cl)nc5)o4)c3C2=O)C(=O)N1 (stereo not drawn) [Example 44] | > 120 | 30 to 150 | > 20 |  |  | 
[2H]c1c([2H])c([2H])c(-c2ncc(CNc3cccc4c3C(=O)N(C3CCC(=O)NC3=O)C4=O)s2)c([2H])c1[2H] (stereo not drawn) [Example 46] | > 120 | 15 to 30 | 1 to 20 |  |  | 
O=C1CCC(N2C(=O)c3cccc(NCc4cnc(-c5ccc(O[C@H]6CCOC6)cc5)o4)c3C2=O)C(=O)N1 (stereo partly drawn) [Example 48] | < 60 | < 15 | < 1 |  |  | 
O=C1CCC(N2C(=O)c3cccc(NCc4cnc(-c5ccc(OC6COC6)cc5)o4)c3C2=O)C(=O)N1 (stereo not drawn) [Example 49] | < 60 | 15 to 30 | < 1 |  |  | 
O=C1CCC(N2C(=O)c3cccc(NCc4cnc(-c5ccc(OCCO)cc5)o4)c3C2=O)C(=O)N1 (stereo not drawn) [Example 50] | < 60 | < 15 | < 1 |  |  | 
COCCOc1ccc(-c2ncc(CNc3cccc4c3C(=O)N(C3CCC(=O)NC3=O)C4=O)o2)cc1 (stereo not drawn) [Example 52] | < 60 | < 15 | < 1 |  |  | 

— patent publication US20250270202A1, “SUBSTITUTED 4-AMINOISOINDOLINE COMPOUND, PREPARATION METHOD THEREFOR, PHARMACEUTICAL COMPOSITION THEREOF, AND USE THEREOF” (SHANGHAI INSTITUTE OF MATERIA MEDICA, CHINESE ACADEMY OF …, priority 2022, published 2025)
